{"source": "patent US9073928B2", "about": "“Tosylate salt of cyclopropanecarboxylic acid 4-(6-chloro-3-methyl-4, 10-dihydro-3H-2,3,4,9-tetrabenzo[f]azulene-9-carbonyl)-2-fluorobenzylamide” (Vantia Limited, priority 2010, dated 2015)", "key": {"[1]": {"assay": "Thermodynamic solubility in water (spectrophotometric method)", "experimental": "(§1) A spectrophotometric method was used. Standards were prepared in methanol (including a methanol blank) and the absorbance measured at 260 and 270 nm, from which a calibration line was generated for each wavelength. The test compound was incubated with agitation in water at 37° C. for 24 h before removal of non-soluble material by centrifugation. The supernatant was analysed against the calibration lines (after subtraction of the water blank response) and the mean of the determinations at the two wavelengths was reported."}, "[2]": {"biological_target": "T1, cloned human V1a receptor (Homo sapiens, UniProt P37288)", "T1 construct": "expressed in transfected cells", "T1 sequence (P37288 whole entry)": "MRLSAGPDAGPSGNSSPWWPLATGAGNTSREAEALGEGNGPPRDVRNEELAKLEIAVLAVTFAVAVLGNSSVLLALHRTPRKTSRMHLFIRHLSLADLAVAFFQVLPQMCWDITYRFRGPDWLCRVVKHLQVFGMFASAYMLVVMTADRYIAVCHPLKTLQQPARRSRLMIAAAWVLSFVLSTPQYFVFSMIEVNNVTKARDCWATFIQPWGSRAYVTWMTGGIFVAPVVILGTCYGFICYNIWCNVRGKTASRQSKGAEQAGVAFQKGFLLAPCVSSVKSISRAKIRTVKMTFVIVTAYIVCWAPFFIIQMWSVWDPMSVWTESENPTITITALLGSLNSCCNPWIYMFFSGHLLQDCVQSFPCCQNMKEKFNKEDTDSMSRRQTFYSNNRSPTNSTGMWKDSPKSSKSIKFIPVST", "assay": "In vitro functional calcium mobilisation assay (FLIPR), antagonist activity", "assay_type": "cell-based", "conditions": "read-out: mean fpKi (Human V1a) (converted)", "from_the_text": "The ability of the tosylate salt of the invention to inhibit the vasopressin V1a receptor may be determined using the in vitro functional calcium mobilisation assay (FLIPR) described in PCT/DK2005/000540. This assay measures antagonist activity at a cloned human V1a receptor."}, "[3]": {"assay": "Oral availability: plasma exposure in rats after oral dosing of suspensions", "assay_type": "in vivo", "conditions": "rat, suspension in 0.5% HPMC, 10 mg/kg p.o.", "text": "The plasma exposure in rats following dosing with the cyclopropanecarboxylic acid 4-(6-chloro-3-methyl-4,10-dihydro-3H-2,3,4,9-tetraazabenzo[f]azulene-9-carbonyl)-2-fluoro-benzylamide para-toluenesulphonate (“Tosylate”) has been examined in comparison with the corresponding free base, cyclopropanecarboxylic acid 4-(6-chloro-3-methyl-4,10-dihydro-3H-2,3,4,9-tetraazabenzo[f]azulene-9-carbonyl)-2-fluoro-benzylamide (“Free Base”)."}, "V1a vasopressin receptor": {"biological_target": "V1a vasopressin receptor (Homo sapiens, UniProt P37288)", "sequence (P37288 whole entry)": "as above", "conditions": "dysmenorrhoea patients, oral; cited from earlier work"}, "physchem": {"assay": "physchem", "conditions": "37 °C, water, thermodynamic from solid", "experimental": "as §1"}}}
{"smiles": "Cc1ccc(S(=O)(=O)O)cc1.Cn1ncc2c1Nc1cc(Cl)ccc1N(C(=O)c1ccc(CNC(=O)C3CC3)c(F)c1)C2", "note": "[Tosylate, cyclopropanecarboxylic acid 4-(6-chloro-3-methyl-4,10-dihydro-3H-2,3,4,9-tetraazabenzo[f]azulene-9-carbonyl)-2-fluoro-benzylamide para-toluenesulphonate]", "values": [{"measurement": "Solubility in water relative to known free base", "setting": "[1]", "value": 8, "unit": "×"}, {"measurement": "solubility at 24 h", "setting": "[1]; 37 °C, thermodynamic from solid", "value": 40, "unit": "µg/mL"}, {"measurement": "Ki", "setting": "[2]", "value": 3.16, "unit": "nM"}, {"measurement": "AUC(0-t)", "setting": "[3]; in vivo, po", "value": 670, "unit": "ng·h/mL"}, {"measurement": "Cmax", "setting": "[3]; in vivo, po", "value": 209, "unit": "ng/mL"}, {"measurement": "Plasma exposure / absorption after oral dosing (in words)", "setting": "[3]", "value": "significant improvements in plasma exposure"}]}
{"smiles": "COc1ccc(S(=O)(=O)N2c3ccc(Cl)cc3[C@](O)(c3ccccc3Cl)[C@@H]2C(=O)N2CCC[C@H]2C(N)=O)cc1OC", "note": "[SR49059]", "values": [{"measurement": "Pain and additional pain-killer use compared to placebo", "setting": "V1a vasopressin receptor", "value": "dose-related decrease in the amount of additional pain-killer taken"}]}
{"smiles": "Cn1ncc2c1Nc1cc(Cl)ccc1N(C(=O)c1ccc(CNC(=O)C3CC3)c(F)c1)C2", "note": "[Free base, cyclopropanecarboxylic acid 4-(6-chloro-3-methyl-4,10-dihydro-3H-2,3,4,9-tetraazabenzo[f]azulene-9-carbonyl)-2-fluoro-benzylamide, reference compound]", "values": [{"measurement": "solubility at 24 h", "setting": "physchem", "value": 5, "unit": "µg/mL"}]}
